Experiments:
PAR4 [1] = target: T1, PAR4 (Homo sapiens (Human), UniProt Q96RI0); assay: Gamma thrombin induced platelet aggregation assay (PRP assay); type: cell-based; conditions: γ-thrombin induced platelet aggregation in PRP
PAR4 [2] = target: T1, PAR4; assay: FLIPR assay in PAR4-expressing HEK293 cells (calcium mobilization); type: cell-based; conditions: PAR4 antagonist activity, FLIPR assay as described in Example A

T1 sequence (Q96RI0 18-385): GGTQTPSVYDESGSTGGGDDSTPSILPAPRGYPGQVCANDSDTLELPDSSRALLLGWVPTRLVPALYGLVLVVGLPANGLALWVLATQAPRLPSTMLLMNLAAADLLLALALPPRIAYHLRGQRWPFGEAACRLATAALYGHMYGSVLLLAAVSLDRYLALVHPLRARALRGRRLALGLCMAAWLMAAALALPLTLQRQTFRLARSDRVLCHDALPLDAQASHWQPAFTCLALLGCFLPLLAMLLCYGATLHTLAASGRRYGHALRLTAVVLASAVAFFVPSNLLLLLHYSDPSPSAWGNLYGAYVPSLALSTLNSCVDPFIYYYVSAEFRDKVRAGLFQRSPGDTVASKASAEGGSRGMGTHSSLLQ

| IC50 (PAR4 [1]) | IC50 (PAR4 [2]) | SMILES |
| --- | --- | --- |
| 68.2 nM | 3.5 nM | COc1cc(OCc2cccc(-c3ccc4c(c3)OCO4)c2)c2cc(-c3cn4nc(OC)sc4n3)oc2c1 [Example 18] |
| 629 nM |  | COc1cc(OCc2cccc(-c3ccc4nccn4c3)c2)c2cc(-c3cn4nc(OC)sc4n3)oc2c1 [Example 23] |
| 970 nM |  | COc1cc(OCc2cccc(-c3cccnc3C#N)c2)c2cc(-c3cn4nc(OC)sc4n3)oc2c1 [Example 26] |
| 24.6 nM |  | COc1cc(OCc2cccc(-c3ccc([N+](=O)[O-])nc3)c2)c2cc(-c3cn4nc(OC)sc4n3)oc2c1 [Example 28] |
| 125 nM |  | COc1cc(OCc2cccc(-c3ccc(C#N)c(F)c3)c2)c2cc(-c3cn4nc(OC)sc4n3)oc2c1 [Example 30] |
| 49.9 nM |  | COc1cc(OCc2cccc(-c3ccc4c(c3)OCCO4)c2)c2cc(-c3cn4nc(OC)sc4n3)oc2c1 [Example 31] |
| 2770 nM | 0.57 nM | COc1cc(OCc2cccc(-c3ccc(F)c(C)n3)c2)c2cc(-c3cn4nc(OC)sc4n3)oc2c1 [Example 32] |
| 65.9 nM | 1.03 nM | COc1cc(OCc2cccc(-c3cnsc3)c2)c2cc(-c3cn4nc(OC)sc4n3)oc2c1 [Example 48] |
| 2670 nM | 4.81 nM | COc1cc(OCc2cccc(-c3ccc(N4CCOCC4)nc3)c2)c2cc(-c3cn4nc(OC)sc4n3)oc2c1 [Example 59] |
| 81.3 nM | 4.18 nM | COc1cc(OCc2cccc(-c3ccc(C(=O)OC(C)(C)C)nc3)c2)c2cc(-c3cn4nc(OC)sc4n3)oc2c1 [Example 60] |
| 2430 nM | 4.04 nM | COc1cc(OCc2cccc(-c3cncnc3)c2)c2cc(-c3cn4nc(C(C)(F)F)sc4n3)oc2c1 [Example 63, 2-(1,1-Difluoroethyl)-6-(6-methoxy-4-((3-(pyrimidin-5-yl)benzyl)oxy)benzofuran-2-yl)imidazo[2,1-b][1,3,4]thiadiazole] |
| 490 nM |  | COc1cc(OCc2cccc(-c3cncnc3)c2)c2cc(-c3cn4nc([C@H](C)F)sc4n3)oc2c1 [Example 64, (S)-2-(1-Fluoroethyl)-6-(6-methoxy-4-((3-(pyrimidin-5-yl)benzyl)oxy)benzofuran-2-yl)imidazo[2,1-b][1,3,4]thiadiazole] |
| 2230 nM | 3.37 nM | COc1cc(OCc2cccc(-c3ccc(F)nc3)c2)c2cc(-c3cn4nc(C(C)(F)F)sc4n3)oc2c1 [Example 68] |
| 13.1 nM |  | COc1cc(OCc2cccc(-c3ccc(F)cn3)c2)c2cc(-c3cn4nc([C@H](C)F)sc4n3)oc2c1 [Example 69] |
| 3.61 nM | 0.5 nM | COc1cc(COc2cc(OC)cc3oc(-c4cn5nc(OC)sc5n4)cc23)cc(-c2cnc(OC)nc2)c1 [Example 71] |
|  | 3130 nM | CSc1nn2cc(-c3nc4c(OCc5ccccc5-c5ccccc5)cccc4o3)nc2s1 [Example 80] |
| 5000 nM | 22.1 nM | COc1nn2cc(-c3nc4c(OCc5cccc(-c6ccoc6)c5)cccc4o3)nc2s1 [Example 81, 4-((3-(Furan-3-yl)benzyl)oxy)-2-(2-methoxyimidazo[2,1-b][1,3,4]thiadiazol-6-yl)benzo[d]oxazole] |
|  | 1.32 nM | COc1cc(OCc2cccc(-c3cnc(OC)nc3)c2)c2cc(-c3cn4nc(C)ccc4n3)oc2c1 [Example 82, 2-(6-Methoxy-4-((3-(2-methoxypyrimidin-5-yl)benzyl)oxy)benzofuran-2-yl)-6-methylimidazo[1,2-b]pyridazine] |
|  | 0.39 nM | COc1cc(OCc2cc(F)cc(-c3cnc(OC)nc3)c2)c2cc(-c3cn4nc(OC)sc4n3)oc2c1 [Example 83, 6-(4-((3-Fluoro-5-(2-methoxypyrimidin-5-yl)benzyl)oxy)-6-methoxybenzofuran-2-yl)-2-methoxyimidazo[2,1-b][1,3,4]thiadiazole] |
|  | 65 nM | COc1cc(OCc2cccc(-c3ccc(C(=O)O)nc3)c2)c2cc(-c3cn4nc(OC)sc4n3)oc2c1 [Example 84, 5-(3-(((6-Methoxy-2-(2-methoxyimidazo[2,1-b][1,3,4]thiadiazol-6-yl)benzofuran-4-yl)oxy)methyl)phenyl)picolinic acid] |
|  | 1.49 nM | COCCN(C)C(=O)c1ccc(-c2cccc(COc3cc(OC)cc4oc(-c5cn6nc(OC)sc6n5)cc34)c2)cn1 [Example 85, 5-(3-(((6-Methoxy-2-(2-methoxyimidazo[2,1-b][1,3,4]thiadiazol-6-yl)benzofuran-4-yl)oxy)methyl)phenyl)-N-(2-methoxyethyl)-N-methylpicolinamide] |
|  | 0.56 nM | COc1cc(OCc2cccc(-c3ccc(C(C)OC4CCCCO4)cn3)c2)c2cc(-c3cn4nc(OC)sc4n3)oc2c1 (stereo not shown) [Example 86, 2-Methoxy-6-(6-methoxy-4-((3-(5-(1-((tetrahydro-2H-pyran-2-yl)oxy)ethyl)pyridin-2-yl)benzyl)oxy)benzofuran-2-yl)imidazo[2,1-b][1,3,4]thiadiazole] |
|  | 1.11 nM | COc1cc(OCc2cccc(-c3ccc(C(C)O)cn3)c2)c2cc(-c3cn4nc(OC)sc4n3)oc2c1 (stereo not shown) [Example 87, 1-(6-(3-(((6-Methoxy-2-(2-methoxyimidazo[2,1-b][1,3,4]thiadiazol-6-yl)benzofuran-4-yl)oxy)methyl)phenyl)pyridin-3-yl)ethanol] |

| IC50 (PAR4 [1]) | IC50 (PAR4 [2]) | SMILES |
| --- | --- | --- |
|  | 1.1 nM | COc1cc(OCc2cccc(-c3ccc(OC4CCCCO4)cc3)c2)c2cc(-c3cn4nc(OC)sc4n3)oc2c1 (stereo not shown) [Example 88] |
|  | 0.79 nM | COc1cc(OCc2cccc(-c3ccc(OC4CCCCO4)cn3)c2)c2cc(-c3cn4nc(OC)sc4n3)oc2c1 (stereo not shown) [Example 89] |
|  | 4.91 nM | COc1cc(OCc2cccc(-c3ccc(O)cc3)c2)c2cc(-c3cn4nc(OC)sc4n3)oc2c1 [Example 90] |
|  | 9.05 nM | COc1cc(OCc2cccc(-c3ccc(O)cn3)c2)c2cc(-c3cn4nc(OC)sc4n3)oc2c1 [Example 91] |
|  | 0.72 nM | COc1cc(OCc2cccc(C3CCOCC3)c2)c2cc(-c3cn4nc(OC)sc4n3)oc2c1 [Example 92, 2-Methoxy-6-(6-methoxy-4-((3-(tetrahydro-2H-pyran-4-yl)benzyl)oxy)benzofuran-2-yl)imidazo[2,1-b][1,3,4]thiadiazole] |
| 105 nM | 0.71 nM | COc1cc(OCc2cccc(C3=CCOCC3)c2)c2cc(-c3cn4nc(OC)sc4n3)oc2c1 [Example 93] |
|  | 2.21 nM | COc1cc(OCc2cccc(C3=CCCCC3)c2)c2cc(-c3cn4nc(OC)sc4n3)oc2c1 [Example 94] |
|  | 0.69 nM | COc1cc(OCc2cccc(C3CCCCC3)c2)c2cc(-c3cn4nc(OC)sc4n3)oc2c1 [Example 95] |
|  | 0.23 nM | COc1cc(OCc2cccc(-c3ccc(C(=O)N(C)C)cc3)n2)c2cc(-c3cn4nc(OC)sc4n3)oc2c1 [Example 96, 4-(6-(((6-Methoxy-2-(2-methoxyimidazo[2,1-b][1,3,4]thiadiazol-6-yl)benzofuran-4-yl)oxy)methyl)pyridin-2-yl)-N,N-dimethylbenzamide] |
|  | 48.7 nM | COc1cc(OCc2ccnc(-c3cccc(C#N)c3)n2)c2cc(-c3cn4nc(OC)sc4n3)oc2c1 [Example 99] |
|  | 0.72 nM | COc1cc(OCc2ccnc(-c3csc(C)n3)n2)c2cc(-c3cn4nc(OC)sc4n3)oc2c1 [Example 102] |
|  | 1.39 nM | COc1cc(OCc2ccnc(C3CC3)n2)c2cc(-c3cn4nc(OC)sc4n3)oc2c1 [Example 103] |
|  | 0.85 nM | COc1cc(OCc2ccnc(C3COc4ccccc4O3)n2)c2cc(-c3cn4nc(OC)sc4n3)oc2c1 (stereo not shown) [Example 104] |
|  | 1.06 nM | COc1cc(OCc2ccnc(C3(c4ccccc4)CC3)n2)c2cc(-c3cn4nc(OC)sc4n3)oc2c1 [Example 105] |
|  | 1.59 nM | COc1cc(OCc2cccc(-c3nc(CO)c(C)s3)c2)c2cc(-c3cn4nc(OC)sc4n3)oc2c1 [Example 106, (2-(3-(((6-Methoxy-2-(2-methoxyimidazo[2,1-b][1,3,4]thiadiazol-6-yl)benzofuran-4-yl)oxy)methyl)phenyl)-5-methylthiazol-4-yl)methanol] |
|  | 1.09 nM | COc1ncc(-c2cccc(COc3cc(Cl)cc4oc(-c5cn6nc(OC)sc6n5)cc34)c2)cn1 [Example 107, 6-(6-Chloro-4-((3-(2-methoxypyrimidin-5-yl)benzyl)oxy)benzofuran-2-yl)-2-methoxyimidazo[2,1-b][1,3,4]thiadiazole] |
|  | 1.43 nM | COc1cnc(-c2cccc(COc3cc(Cl)cc4oc(-c5cn6nc(OC)sc6n5)cc34)c2)cn1 [Example 108, 6-(6-Chloro-4-((3-(5-methoxypyrazin-2-yl)benzyl)oxy)benzofuran-2-yl)-2-methoxyimidazo[2,1-b][1,3,4]thiadiazole] |
|  | 0.45 nM | COc1cc(OCc2cccc(C3(O)CCOCC3)n2)c2cc(-c3cn4nc(OC)sc4n3)oc2c1 [Example 109, 4-(6-(((6-Methoxy-2-(2-methoxyimidazo[2,1-b][1,3,4]thiadiazol-6-yl)benzofuran-4-yl)oxy)methyl)pyridin-2-yl)tetrahydro-2H-pyran-4-ol] |
|  | 0.23 nM | COc1cc(OCc2cccc(C3(OC)CCOCC3)n2)c2cc(-c3cn4nc(OC)sc4n3)oc2c1 [Example 111, 2-Methoxy-6-(6-methoxy-4-((6-(4-methoxytetrahydro-2H-pyran-4-yl)pyridin-2-yl)methoxy)benzofuran-2-yl)imidazo[2,1-b][1,3,4]thiadiazole] |
|  | 0.36 nM | COc1cc(OCc2cccc(C3(OC)CCOCC3)n2)c2cc(-c3cn4nc([C@H](C)F)sc4n3)oc2c1 [Example 112, (S)-2-(1-Fluoroethyl)-6-(6-methoxy-4-((6-(4-methoxytetrahydro-2H-pyran-4-yl)pyridin-2-yl)methoxy)benzofuran-2-yl)imidazo[2,1-b][1,3,4]thiadiazole] |
|  | 0.35 nM | COc1cc(OCc2cccc(C3(F)CCOCC3)n2)c2cc(-c3cn4nc(OC)sc4n3)oc2c1 [Example 113, 6-(4-((6-(4-Fluorotetrahydro-2H-pyran-4-yl)pyridin-2-yl)methoxy)-6-methoxybenzofuran-2-yl)-2-methoxyimidazo[2,1-b][1,3,4]thiadiazole] |
|  | 0.31 nM | COc1cc(OCc2cccc(C3(F)CCOCC3)n2)c2cc(-c3cn4nc([C@H](C)F)sc4n3)oc2c1 [Example 114, (S)-2-(1-Fluoroethyl)-6-(4-((6-(4-fluorotetrahydro-2H-pyran-4-yl)pyridin-2-yl)methoxy)-6-methoxybenzo-furan-2-yl)imidazo[2,1-b][1,3,4]thiadiazole] |

From patent US9518064B2, “Imidazothiadiazole and imidazopyridazine derivatives as protease activated receptor 4 (PAR4) inhibitors for treating platelet aggregation” (BRISTOL-MYERS SQUIBB COMPANY, priority 2012, dated 2016)
